Reference: patent US20170020909A1, “METHODS OF TREATING GLAUCOMA USING AMP-ACTIVATED PROTEIN KINASE (AMPK) ACTIVATORS” (Massachusetts Eye and Ear Infirmary, priority 2014, published 2017)

What was measured:
[1] = tested on: laminin; assay: Immunoblot of laminin in conditioned media of human TM cells; type: cell-based; conditions: 24 hours
Experimental: FIGS. 5A-E. AICAR suppresses ECM proteins in primary human TM cells under basal and TGF-β2 stimulatory conditions. (A) Representative immunoblots of ECM proteins from conditioned media (CM) of human TM cells treated for 24 hours with PBS vehicle or 0.5 mM AICAR and (B) integrated band intensities calculated from those immunoblots. (C) Representative immunoblots of ECM proteins from CM of human TM cells under stimulation with 2.5 ng/mL TGF-β2. Cells were pre-incubated for 1 hour with PBS or 0.5 mM AICAR prior to full 24-hour treatment. (D) Mean integrated band intensities. Data in panels B and D are expressed as mean±SEM (*p<0.05 vs. PBS vehicle by student t-test; n=5-7). (E) Representative 10% acrylamide gels stained with Coomassie Brilliant Blue as a loading control. […]
At the conclusion of each experiment for matricellular and ECM protein detection, conditioned media (CM) from TM cell cultures was harvested and centrifuged at 5000 rpm for 10 minutes at 4° C. The supernatant was then concentrated (Amicon Ultra-4 Filter Unit, 10 kDa; Millipore, Milford, Mass.), and protein content quantified using the DC Protein Assay kit adhering to manufacturer's protocols (Bio-Rad, Hercules, Calif.). […] Samples were then centrifuged at 14,000 rpm for 15 minutes at 4° C. and protein content quantified. […]

[2] = tested on: perfused ex vivo human anterior segments; assay: IOP in constant-flow-perfused ex vivo human anterior segments; conditions: 2.5 μL of 200 mM AICAR in 1 mL of ex vivo media, by day 7, mean±SEM, n=3
Description: The effects of AICAR on IOP in perfused constant flow ex vivo human anterior segments was examined using well-established and validated methods (see, e.g., Oh et al., Invest. Ophthalmol. Vis. Sci. 2013; 54:3309-19; Ethier et al., Invest. Ophthalmol. Vis. Sci. 2004; 45:1863-70). Briefly, all donor pairs of eyes were obtained from National Disease Research Interchange (NDRI, Philadelphia, Pa.) according to the provisions of the Declaration of Helsinki for research involving human tissue. Eyes were obtained within 24 hours after death. No donors were known to have a history of glaucoma or other ocular disorder. Human perfused anterior segment cultures were prepared by scoring the surface of the eye around ora serrata with a surgical blade, and the full-thickness incision was completed around the eye with scissors. The vitreous, lens, and iris were removed. […] IOP was monitored with a pressure transducer (Argon Medical Devices, Athens, Tex.) and were recorded with an automated computerized system (National Instruments, Austin, Tex.) every second and averaged each hour. […] Effects of AICAR treatment on IOP are expressed as the percentage change in IOP (compared to baseline). Values are expressed as mean±SEM, and paired two-tailed student t-tests are applied to determine significance of difference in IOP between control and experimental groups at selected time intervals. […]

SMILES: NC(=O)c1ncn([C@@H]2O[C@H](CO)[C@@H](O)[C@H]2O)c1N [AICAR, 5-Aminoimidazole-4-carboxamide riboside]
- decrease in laminin (mean integrated band intensity) ([1]; 0.5 mM AICAR vs PBS vehicle, basal): 64%
- decrease in laminin level ([1]; 0.5 mM AICAR, under TGF-β2 stimulation with 2.5 ng/mL): 33%
- mean decrease in IOP compared with paired opposite eye controls [2]: 18.54±1.78%
